Test results reported in publication PMC4268911 (International Journal of Nanomedicine, 2014).

Experiments:
MDAMB 231 cells = experiment: In vitro cytotoxicity of conjugate, MTS-based assay; assay type: cell-based, human; conditions: MDAMB 231, 0–200 μg mL−1 polymer, 24 hours
MCF-7 cells = experiment: as above; assay type: cell-based, human; conditions: MCF-7, 0–200 μg mL−1 polymer, 24 hours

## Low-molecular-weight heparin [LMWH]
MDAMB 231 cells
  cytotoxicity (cell viability): no severe in vitro cytotoxicity
MCF-7 cells
  cytotoxicity (cell viability): no severe in vitro cytotoxicity
